Reference: patent US20080026076A1 (priority 2003, published 2008)
Values joined by “and” are separate entries in the source; they are usually repeats but may differ in a detail not shown here. Identical values can stand only once. Marks after values point to notes of the source that are not given here.

Legend:
[1] = system: NE precontracted aortic segments; test: Vascular reactivity in segments of aorta, wire-type myograph; assay type: in vivo, rat
Description: Animals are anesthetized, the heart and aorta excised, and vascular reactivity is assessed in segments of aorta using a wire-type myograph.

PKC = conditions: cytosol and membrane fraction of cells from thyroid, brain, liver, fibroblasts; μM concentrations of quercetin; cited from earlier work
[2] = system: rats with abdominal aortic constriction (AAC) or sham operated; test: Blood pressure in caudal and carotid arteries of conscious rats, abdominal aortic constriction pressure overload model; assay type: in vivo, rat; conditions: quercetin 1.5 g/kg chow, mean ± SEM
Excerpt: In this procedure the abdominal aorta is constricted to increase the afterload on the heart and produce pressure overload. […] Rats consumed this diet for 7 days. On the 8th day, 5 rats were surgically modeled for pressure overload by constricting the abdominal aorta to a diameter of 0.63 mm with a Weck hemoclip. The other 5 rats were sham operated (anesthetized and the aorta exposed, but not constricted). […] Another group of 10 rats were placed on a standard diet with no supplement and treated in an identical fashion with 5 surgically modeled for pressure overload and 5 sham operated. […] Two weeks after surgery post-sacrifice morphometric measurements are obtained by measuring total heart weight, left ventricle weight, and calculating heart:body weight and left ventricle:body weight ratios to assess cardiac mass and cardiac hypertrophy. […] An identical experimental procedure as described in Example I is used with n=10 rats per group (S, AAC, SQ, AAC-Q) for a total of 40 rats. […] Rats subjected to this protocol have very high carotid blood pressure. Rats are anesthetized, a catheter is placed in the caudal and carotid arteries, rats are allowed to regain consciousness for 60 minutes and blood pressures are measured.

[3] = system: prehypertensive and stage 1 hypertensive human subjects; test: Randomized, placebo-controlled, double-blind crossover trial: blood pressure; assay type: in vivo; conditions: for Diastolic blood pressure, Endpoint / MAP, Endpoint / Systolic blood pressure, Endpoint: end of 4-week quercetin phase, 730 mg/day, mean ± SEM; for quercetin induced-lowering of systolic blood pressure: change from baseline
Excerpt: Systemic markers of oxidant load also were examined as secondary outcomes to determine if reductions in blood pressure were associated with lower indices of oxidative stress. This study was approved by the University of Utah Human Use Review Committee, University of Utah Institutional Review Board, and written informed consent was obtained from each participant. Recruitment efforts in the greater Salt Lake City area targeted males and females with prehypertension (120-139 mmHg systolic/80-89 mmHg diastolic) and Stage 1 hypertension (140-159 mmHg systolic/90-99 mmHg diastolic) as defined by The 7th Report Of The Joint National Committee On Prevention, Detection, Evaluation, And Treatment Of High Blood Pressure (32). […] The secondary hypothesis was that quercetin-induced reductions in blood pressure would be associated with lower indices of systemic oxidant stress. […] A 14-day washout period separated the two phases. Subjects were randomly assigned to begin either the quercetin or the placebo phase first. […] Clinic visits were conducted on overnight-fasted subjects in the morning hours at the beginning and end of the placebo and quercetin supplementation phases. Subjects were instructed not to exercise prior to their appointments. […] Blood pressure was a primary outcome variable and was obtained at each clinic visit by a trained observer using an Omron random zero automatic blood pressure analyzer as previously described (35). Each participant sat quietly for 5-10 minutes, after which their arm was placed at heart level and blood pressure and pulse rate were determined at least three times in 3-5 minute intervals. If blood pressure varied among these determinations by more than 10 mmHg, three additional trials were performed. The accumulated measurements then were averaged to determine overall systolic and diastolic pressure and pulse rate for each subject.

[4] = Trial: body mass, heart rate, adverse effects; assay type: in vivo, human
Description: A 14-day washout period separated the two phases. Subjects were randomly assigned to begin either the quercetin or the placebo phase first. […] Clinic visits were conducted on overnight-fasted subjects in the morning hours at the beginning and end of the placebo and quercetin supplementation phases. Subjects were instructed not to exercise prior to their appointments. […] Blood pressure was a primary outcome variable and was obtained at each clinic visit by a trained observer using an Omron random zero automatic blood pressure analyzer as previously described (35). Each participant sat quietly for 5-10 minutes, after which their arm was placed at heart level and blood pressure and pulse rate were determined at least three times in 3-5 minute intervals. If blood pressure varied among these determinations by more than 10 mmHg, three additional trials were performed. The accumulated measurements then were averaged to determine overall systolic and diastolic pressure and pulse rate for each subject. Nearly 1000 patients were interviewed and screened for eligibility. […] From this initial screening, 204 were evaluated in more detail at a subsequent clinic visit to determine if all inclusion/exclusion criteria were met, and that blood pressure was within the study limits (FIG. 6). […]

Akt = Akt signaling status in left ventricle, immunoblot; assay type: in vivo, rat; conditions: AAC rats fed supplemental quercetin
Description: Determination of ERK1/2 and Akt signaling status (FIGS. 4A & 4B). All extraction procedures were performed at 4° C. […] After homogenization, the samples were sonicated twice on ice and centrifuged at 11,000×g for 10 min. at 4° C. Supernatants were recovered and stored at −80° C. for subsequent immunoblotting. Protein concentration of whole heart cell lysate was determined using a Bio-Rad Protein assay (Bio-Rad, Hercules, Calif.) with bovine serum albumin (BSA) as a standard.

[5] = sham-operated Q-fed animals (n=10)

Q: Which results are given for `O=c1c(O)c(-c2ccc(O)c(O)c2)oc2cc(O)cc(O)c12` [quercetin, 3,5,7,3′,4′-pentahydroxyflavone]?
A: maximal ACh-evoked relaxation ([1]; AAC-Q rats (n=9), untreated AAC 30±3): 44±3%; SNP-evoked relaxation ([1]; AAC-Q rats (n=9), untreated AAC 56±3): 71±4%; SNP-evoked relaxation [1, 5]: 71±5%; maximal ACh-evoked relaxation [1, 5]: 38±4%; PKC activity (PKC): inhibition of PKC activity; Caudal MAP (mean arterial pressure) ([2]; AAC + Q: AAC rats): 108.0 ± 7.1 mmHg; Diastolic Caudal blood pressure ([2]; AAC + Q: AAC rats): 104.7 ± 5.5^b mmHg; Gradient MAP ([2]; AAC + Q: AAC rats): 18.3 ± 4.4^b mmHg; Systolic Caudal blood pressure ([2]; AAC + Q: AAC rats): 118.3 ± 6.4 mmHg; Systolic Carotid blood pressure ([2]; AAC + Q: AAC rats, untreated AAC 201.4 ± 11.4): 158.8±10.3 mmHg and 158.8 ± 10.3^b mmHg; Carotid MAP (mean arterial pressure) ([2]; Sham + Q: sham operated rats): 113.5 ± 3.8^a mmHg; Caudal MAP (mean arterial pressure) ([2]; Sham + Q: sham operated rats): 100.6 ± 3.0 mmHg; Diastolic Carotid blood pressure ([2]; Sham + Q: sham operated rats): 106.2 ± 4.8^a mmHg; Diastolic Caudal blood pressure ([2]; Sham + Q: sham operated rats): 93.6 ± 3.2^a mmHg; Diastolic Gradient (carotid vs caudal) ([2]; Sham + Q: sham operated rats): 7.0 ± 2.9^a mmHg; Gradient MAP ([2]; Sham + Q: sham operated rats): 7.2 ± 1.9^ab mmHg; Systolic Carotid blood pressure ([2]; Sham + Q: sham operated rats): 128.2 ± 1.9^a mmHg; Systolic Caudal blood pressure ([2]; Sham + Q: sham operated rats): 114.7 ± 3.2 mmHg; Systolic Gradient (carotid vs caudal) ([2]; Sham + Q: sham operated rats): 7.3 ± 1.9^a mmHg; Diastolic blood pressure, Endpoint ([3]; prehypertensive (n=22), baseline 85 ± 1): 83 ± 2 mmHg; MAP, Endpoint ([3]; prehypertensive (n=22), baseline 101 ± 1): 98 ± 2 mmHg; Systolic blood pressure, Endpoint ([3]; prehypertensive (n=22), baseline 133 ± 2): 128 ± 3 mmHg; quercetin induced-lowering of systolic blood pressure ([3]; prehypertensive): −5.2 mmHg; Diastolic blood pressure, Endpoint ([3]; stage 1 hypertensive (n=22), baseline 97 ± 1): 92 ± 2 mmHg; MAP, Endpoint ([3]; stage 1 hypertensive (n=22), baseline 113 ± 1): 108 ± 2 mmHg; Systolic blood pressure, Endpoint ([3]; stage 1 hypertensive (n=22), baseline 145 ± 2): 138 ± 2 mmHg; quercetin induced-lowering of systolic blood pressure ([3]; stage 1 hypertensive): −7.2 mmHg; carryover antihypertensive effect: mean arterial pressure at baseline of quercetin phase vs placebo phase ([3]; subjects that received quercetin treatment first): No differences were found; adverse effects ([4]; 730 mg quercetin/day, 4 weeks, during the course of the study): No adverse effects; Heart rate ([4]; throughout the study (data not shown)): unchanged; activation of Akt (Akt): prevented
